Measurements from patent publication US10501460B2, “Heterocyclic compounds and uses thereof” (Plexxikon Inc., priority 2013, dated 2019).

Columns and labels:
[1] = target: T1, BRD4-BD1 (44-164) (Homo sapiens, UniProt O60885); experiment: Alphascreen binding assay BRD4-BD1 (BRD4 biochemical inhibitory activity); settings: read-out: Biochemical activity (IC50 μM) BRD4(1) H4
T1 construct: BRD4-BD1 (44-164); made in house; host or cells: E. coli BL21-CodonPlus (DE3)
Description: Binding of compounds of formula (I) with bromodomain 2, 3 4 was assessed using Alphascreen binding assay. The inhibition of the interaction between bromodomain and its acetylated target protein (Filippakopoulos P et al. 2012) was measured quantitatively using recombinant BRD proteins, an acetylated Histone 4 peptide and AlphaScreen™ technology. In absence of inhibition the BRD protein bound to AlphaScreen™ nickel chelate acceptor beads can interact with the acetylated Histone 4 peptide which is immobilized by the AlphaScreen™ Streptavidin coated beads. This interaction brings donor and acceptor beads in proximity. The close proximity allows the singlet oxygen produced by laser excitation of the donor beads to reach the acceptor beads and generate a luminescence signal. BRD inhibitors result in a decrease in the proximity signal through an inhibition of the BRD—acetylated peptide interaction.
Recombinant human bromodomains containing the N-terminal bromodomain (BRD2-BD1 (71-194), BRD3-BD1 (24-144) and BRD4-BD1 (44-164)) or dual bromodomains (BRD4-BD12 (1-477), BRD4-BD12 (1-472)) were prepared and purified as described in protein expression and purification session. The peptide is human Histone H41-21K5AcK8AcK12AcK16Ac-Biotin (Anaspec Calif., USA).
Protocol for BRD2, BRD3 and BRD4 assay: All components are prepared in buffer composed of 50 mM HEPES pH 7.5, 100 mM NaCl, 0.01% bovine serum albumin (“BSA”), 0.01% Triton X-100, 2 mM dithiothreitol (“DTT”). 7 μL of Bromodomain protein and 7 μL of peptide are added to wells containing 1 μL of various concentrations of test compounds of formula (I) or DMSO vehicle in an Alphaplate (PerkinElmer Ga., USA) and incubated for 1 hour at room temperature. 4 μL donor and acceptor bead mixture is then added with final concentrations of 7.5 μg/ml. 30 minutes after bead addition, Alpha signal is read on the Envision spectrometer ([…]Ex 680 nm, […]Em 520-620 nm). Final concentrations of bromodomain proteins and peptide are as shown below.
All data was normalized to the mean of 16 high and 16 low control wells on each plate. A four parameter curve fit of the following formula was then applied: Y=a+(b−a)/(1+(x/c)^d) Where ‘a’ is the minimum, ‘b’ is the maximum, ‘c’ is the pIC50 and ‘d’ is the Hill slope. Protein Expression and Purification
Recombinant human bromodomains containing the N-terminal bromodomain (BRD2-BD1 (71-194), BRD3-BD1 (24-144) and BRD4-BD1 (44-164)) or dual bromodomains (BRD4-BD12 (1-477), BRD4-BD12 (1-472)) were expressed in E. coli cells (in a modified pET vector) with an N-terminal six-His tag and purified using a combination of both IMAC (Ni-affinity) and size exclusion chromatography steps.
Recombinant BRD proteins were expressed using the E. coli strain BL21-CodonPlus (DE3) (Agilent Technologies Calif., USA). Cells were grown in Terrific Broth (TB) media to an OD600 of 1.2 at 37° C. at which temperature was reduced to 25° C., protein was induced with 1.0 mM ispropyl-β-D-thiogalactopyranoside (“IPTG”) for 12-18 hours and harvested by centrifugation at 8000×g for 20 minutes. Cells were re-suspended in 0.1M K2PO4 pH 8.0, 250 mM NaCl, 10% Glycerol, 0.75% NP-40, 25 mM Imidazole, 5 mM beta-mercaptoethanol (“BME”) with 0.2 mg/ml Lysosyme, 2.0 mM phenylmethanesulfonyl fluoride (“PMSF”), 25 μg/ml DNAse I, incubated on ice for 30 minutes and lyzed with a cell disruptor (MicroFluidics Mass., USA). The lysate was clarified by centrifugation at 20,000×g for 2 hours. The protein was captured with Ni-NTA resin (Life Technologies, USA). Contaminating proteins were washed off with 25 mM Tris-HCl pH 8.3, 250 mM NaCl, 12% Glycerol and 50 mM Imidazole. Following 3× wash steps, protein was eluted step wise using a 50 mM HEPES pH 7.5, 500 mM NaCl and 400 mM Imidazole. The protein was further purified using Gel Filtration column 26/600 Superdex 200 (GE Biosciences NJ, USA) in 50 mM HEPES pH 7.5, 250 mM NaCl. The protein was aliquoted and flash-frozen in liquid Nitrogen. […]

[2] = tested on: bromodomain; experiment: Bromodomain cell assays of Example 40 (at least one of them); format: cell-based; settings: in at least one of the bromodomain cell assays described in Example 40
Method in brief: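 Growth inhibition: 3000 MV-4-11, MOLM-13, MM.1S or neuroblastoma cells/well got an 8-point 1:3 series from 10 μM top (0.2% DMSO) for 72 h, then CellTiter-Glo luminescence. Myc reporter: MV-4-11 with E-box firefly luciferase, 24 h exposure, One-Glo luminescence plus CellTiter-Fluo cell count. pIC50 from four-parameter fit.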

SMILES	IC50 [1] [µM]	IC50 [2] [µM]
Cc1noc(C)c1-c1cnc2c(c1)N(S(=O)(=O)c1ccccc1)CC2CCC(=O)O (stereo not shown) [P-0175, 3-[1-(benzenesulfonyl)-6-(3,5-dimethylisoxazol-4-yl)-2,3-dihydropyrrolo[3,2-b]pyridin-3-yl]propanoic acid]	1 to 10	< 10
COC(c1c[nH]c2cc(-c3c(C)noc3C)cnc12)C1CC1 (stereo not shown) [P-0069]	1 to 10	< 10
Cc1noc(C)c1-c1cnc2cc[nH]c2c1 [P-0018, 3,5-dimethyl-4-(1H-pyrrolo[3,2-b]pyridin-6-yl)isoxazole]	1 to 10	< 10
Cc1noc(C)c1-c1cnc2c(CC3CC3)cn(S(=O)(=O)CCC(F)(F)F)c2c1 [P-0074, 4-[3-(cyclopropylmethyl)-1-(3,3,3-trifluoropropylsulfonyl)pyrrolo[3,2-b]pyridin-6-yl]-3,5-dimethyl-isoxazole]	1 to 10	< 10
Cc1noc(C)c1-c1cnc2c(I)c[nH]c2c1 [P-0072, 4-(3-iodo-1H-pyrrolo[3,2-b]pyridin-6-yl)-3,5-dimethyl-isoxazole]	1 to 10	< 10
Cc1noc(C)c1-c1cnc2[nH]c(C)c(C(=O)c3cccnc3)c2c1 [P-0006, [5-(3,5-dimethylisoxazol-4-yl)-2-methyl-1H-pyrrolo [2,3-b]pyridin-3-yl]-(3-pyridyl)methanone]	1 to 10	< 10
Cc1noc(C)c1-c1ccc2[nH]cc(CCN3CCCC3)c2c1 [P-0010, 3,5-dimethyl-4-[3-(2-pyrrolidin-1-ylethyl)-1H-indol-5-yl]isoxazole]	1 to 10	< 10
Cc1noc(C)c1-c1cnc2[nH]cc(I)c2c1 [P-0086, 4-(3-iodo-1H-pyrrolo[2,3-b]pyridin-5-yl)-3,5-dimethyl-isoxazole]	1 to 10	< 10
Cc1noc(C)c1-c1cnc2ccn(S(=O)(=O)N3CCCC3)c2c1 [P-0068, 3,5-dimethyl-4-(1-pyrrolidin-1-ylsulfonylpyrrolo [3,2-b]pyridin-6-yl)isoxazole]	1 to 10	< 10
Cc1noc(C)c1-c1cnc2[nH]cc(C(=O)c3cccnc3)c2c1 [P-0004, [5-(3,5-dimethylisoxazol-4-yl)-1H-pyrrolo[2,3-b]pyridin-3-yl]-(3-pyridyl)methanone]	1 to 10	< 10
Cc1noc(C)c1-c1cnc2c(C(=O)O)cn(S(=O)(=O)c3ccccc3)c2c1 [P-0169, 1-(benzenesulfonyl)-6-(3,5-dimethylisoxazol-4-yl)pyrrolo[3,2-b]pyridine-3-carboxylic acid]	≤ 1	< 10
Cc1noc(C)c1-c1cnc2c(c1)c(C(O)C1CCS(=O)(=O)CC1)cn2S(=O)(=O)c1ccccc1 (stereo not shown) [P-0094, [1-(benzenesulfonyl)-5-(3,5-dimethylisoxazol-4-yl)pyrrolo[2,3-b]pyridin-3-yl]-(1,1-dioxothian-4-yl)methanol]	1 to 10	< 10
Cc1noc(C)c1-c1cnc2c(c1)c(CC1CCS(=O)(=O)CC1)cn2S(=O)(=O)c1ccccc1 [P-0096, 4-[[1-(benzenesulfonyl)-5-(3,5-dimethylisoxazol-4-yl)pyrrolo[2,3-b]pyridin-3-yl]methyl]thiane 1,1-dioxide]	1 to 10	< 10
Cc1noc(C)c1-c1ccc2[nH]ccc2c1 [P-0002, 4-(1H-indol-5-yl)-3,5-dimethyl-isoxazole]	1 to 10	< 10
Cc1noc(C)c1-c1cnc2c(CC3CC3)c[nH]c2c1 [P-0070, 4-[3-(cyclopropylmethyl)-1H-pyrrolo[3,2-b]pyridin-6-yl]-3,5-dimethyl-isoxazole]	1 to 10	< 10
Cc1noc(C)c1-c1cnc2[nH]c(-c3ccc(F)cc3)c(C(=O)c3cccnc3)c2c1 [P-0008, [5-(3,5-dimethylisoxazol-4-yl)-2-(4-fluorophenyl)-1H-pyrrolo[2,3-b]pyridin-3-yl]-(3-pyridyl)methanone]	1 to 10	< 10
Cc1noc(C)c1-c1cnc2c(I)cn([Si](C(C)C)(C(C)C)C(C)C)c2c1 [P-0130, [6-(3,5-dimethylisoxazol-4-yl)-3-iodo-pyrrolo[3,2-b]pyridin-1-yl]-triisopropyl-silane]	1 to 10	< 10
Cc1noc(C)c1-c1cnc2[nH]cc(Cc3ccc(C(F)(F)F)cc3)c2c1 [P-0015, 3,5-dimethyl-4-[3-[[4-(trifluoromethyl)phenyl]methyl]-1H-pyrrolo[2,3-b]pyridin-5-yl]isoxazole]	1 to 10	< 10
Cc1noc(C)c1-c1cnc2c(c1)c(C(F)C1CCS(=O)(=O)CC1)cn2S(=O)(=O)c1ccccc1 (stereo not shown) [P-0095, 4-[[1-(benzenesulfonyl)-5-(3,5-dimethylisoxazol-4-yl)pyrrolo[2,3-b]pyridin-3-yl]-fluoro-methyl]thiane 1,1-dioxide]	1 to 10	< 10
Cc1noc(C)c1-c1cnc2c(C#N)c[nH]c2c1 [P-0082, 6-(3,5-dimethylisoxazol-4-yl)-1H-pyrrolo[3,2-b]pyridine-3-carbonitrile]	1 to 10	< 10
Cc1noc(C)c1-c1cnc2c(C#N)cn(S(=O)(=O)c3ccccc3)c2c1 [P-0081, 1-(benzenesulfonyl)-6-(3,5-dimethylisoxazol-4-yl)pyrrolo[3,2-b]pyridine-3-carbonitrile]	≤ 1	< 10
COc1ccccc1S(=O)(=O)n1ccc2ncc(-c3c(C)noc3C)cc21 [P-0065, 4-[1-(2-methoxyphenyl)sulfonylpyrrolo[3,2-b]pyridin-6-yl]-3,5-dimethyl-isoxazole]	1 to 10	< 10
Cc1noc(C)c1-c1cnc2[nH]cc(C(=O)c3ccc(C(F)(F)F)cc3)c2c1 [P-0016, [5-(3,5-dimethylisoxazol-4-yl)-1H-pyrrolo[2,3-b]pyridin-3-yl]-[4-(trifluoromethyl)phenyl]methanone]	1 to 10	< 10
[2H]C([2H])([2H])n1cc(I)c2cc(-c3c(C)noc3C)cnc21 [P-0088, 4-[3-iodo-1-(trideuteriomethyl)pyrrolo[2,3-b]pyridin-5-yl]-3,5-dimethyl-isoxazole]	1 to 10	< 10
Cc1noc(C)c1-c1cnc2c(c1)c(I)cn2S(=O)(=O)c1ccccc1 [P-0087, 4-[1-(benzenesulfonyl)-3-iodo-pyrrolo[2,3-b]pyridin-5-yl]-3,5-dimethyl-isoxazole]	1 to 10	< 10
Cc1noc(C)c1-c1cnc2[nH]c(-c3ccccc3)cc2c1 [P-0001, 3,5-dimethyl-4-(2-phenyl-1H-pyrrolo[2,3-b]pyridin-5-yl)isoxazole]	1 to 10	< 10
